Patent US6828144B2, “Method of observing vasculogenesis in vitro using cultured allantois” (Wisconsin Alumni Research Foundation, priority 1996, dated 2004)
Like-named read-outs stand apart in the source and are kept apart here.

Tested on: headfold-stage allantoic explants
Conditions: for formation / retention of vascular channels in explants: 5% FCS, feeding at 24 hour intervals, by 72 hours
Protocol: At the onset of culture, or at varying times thereafter, known test compounds, such as Vascular Endothelial Growth Factor (VEGF, R & D Systems, Minneapolis, Minn.), are prepared according to the manufacturer's instructions and added to the cultures in concentrations recommended by the manufacturer (e.g., 1-20 ng VEGF/ml culture medium) or, in the case of unknown test compounds, in varying concentrations to determine the one that either inhibits or enhances vasculogenesis.
To test that possibility, recombinant VEGE (1-10 ng/ml culture medium) was added to explants at the start of culture in 5% FOS.
For survival and vascularization, allantoises were mouth-aspirated into a hand-pulled glass microcapillary (K. M. Downs and R. L. Gardner, supra, 1995; K. M. Downs, et al., supra, 1998) and either cultured in suspension as previously described (K. M. Downs, et al., supra, 1998) or placed individually (i) into wells of 24-well tissue-culture plates (Falcon 3047), (ii) onto glass cover slips (12 mm, Fisher) coated for 30 minutes in filtered (0.45 μm, cellulose acetate) poly-D-lysine (1 mg/ml double processed tissue culture water; Sigma) inserted into wells of 24-well tissue-culture plates and rinsed 34 times with sterile water, (iii) into sterile 8-well plastic chamber slides (Lab-Tek, Nunc), or (iv) into 8-well glass chamber slides some of which were coated in poly-D-lysine. Allantoises were cultured in 0.5 ml (24-well tissue-culture dishes or Falcon culture tubes (K. M. Downs and R. L. Gardner, supra, 1995) or 0.4 ml (8-well chamber slides) of culture medium (Dulbecco's modified Eagle's medium (DMEM) containing either equal parts of immediately-centrifuged and heat-inactivated rat serum as previously described (K. M. Downs and R. L. Gardner, supra, 1995) or 5, 10 and 20% heat-inactivated fetal calf serum (Gibco-BRL; frozen and thawed twice before using) for 24-72 hours at 37° C. in 6.2% CO2 in air. For culture longer than 24 hours, allantoises were given completely fresh medium at 24-hour intervals. In some experiments, erythrosin B (Fisher; 0.04% in phosphate-buffered saline (PBS); H. J. Phillips and J. E. Terryberry, Exp. Cell Res. 13:341-347, 1957) was diluted 1:1 in dissection medium to verify allantoic cell viability. Vascular Endothelial Growth Factor (R & D System,s Minneapolis, Minn.) was prepared according to the manufacturer's instructions and was added to culture medium containing 5% FCS in concentrations of 1-20 ng/ml.
To test that possibility, recombinant VEGF (1-10 ng/ml culture medium) was added to explants at the start of culture in 5% FCS.

For VEGF, the “formation / retention of vascular channels in explants” value (shortened to “formation / retention”) (VEGF 1 ng/ml) was “devoid of such channels”, the “cell survival (cell retention)” value (VEGF 2-10 ng/ml in 5% FCS, untreated explants in FCS alone 36%) was 78% and the “formation / retention” value (VEGF 2-10 ng/ml, added at start of culture) was “retention of Flk-1 containing vascular channels and overlying VCAM-1 positive cells”. The “formation / retention” value (VEGF 2-10 ng/ml, added at start of culture, listed as Vascular Endothelial Growth Factor) was “formation of many vascular channels containing Flk-1 and Flt-1” and the “survival of angioblasts and morphogenesis into vessels” value (explants cultured in low serum) was “promoted their survival and morphogenesis into vessels”.
